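Five compound concentrations were applied to cells in 96-well plates for 48 hours; endpoints were derived by simple linear interpolation of the resulting dose-response curve. TGI marks complete inhibition of growth.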
What was measured:
Experiment in all cases: inhibition of tumour cell growth, NCI panel, 48 h
RPMI-8226 leukemia = test system: RPMI-8226 leukemia
NCI-H460 lung = test system: NCI-H460 lung
CCRF-CEM leukemia = test system: CCRF-CEM leukemia
MALME-3M melanoma = test system: MALME-3M melanoma
MCF7 breast = test system: MCF7 breast
MOLT-4 leukemia = test system: MOLT-4 leukemia
NCI/ADR-RES ovarian = test system: NCI/ADR-RES ovarian
SK-MEL-5 melanoma = test system: SK-MEL-5 melanoma
HL-60(TB) leukemia = test system: HL-60(TB) leukemia
BT-549 breast = test system: BT-549 breast
HCT-116 colon = test system: HCT-116 colon
SF-539 CNS = test system: SF-539 CNS
OVCAR-5 ovarian = test system: OVCAR-5 ovarian
OVCAR-3 ovarian = test system: OVCAR-3 ovarian
SR leukemia = test system: SR leukemia
A498 renal = test system: A498 renal
SK-MEL-2 melanoma = test system: SK-MEL-2 melanoma
IGROV1 ovarian = test system: IGROV1 ovarian
HCT-15 colon = test system: HCT-15 colon
TK-10 renal = test system: TK-10 renal
COLO 205 colon = test system: COLO 205 colon
786-0 renal = test system: 786-0 renal
PC-3 prostate = test system: PC-3 prostate
LOX IMVI melanoma = test system: LOX IMVI melanoma
A549 NSCLC = test system: A549 NSCLC
EKVX NSCLC = test system: EKVX NSCLC
SF-268 CNS = test system: SF-268 CNS
UO-31 renal = test system: UO-31 renal
M14 melanoma = test system: M14 melanoma
SK-OV-3 ovarian = test system: SK-OV-3 ovarian
SNB-75 CNS = test system: SNB-75 CNS
SK-MEL-28 melanoma = test system: SK-MEL-28 melanoma
MDA-N = test system: MDA-N
SN12C renal = test system: SN12C renal
SF-295 CNS = test system: SF-295 CNS
HOP-62 NSCLC = test system: HOP-62 NSCLC
RXF 393 renal = test system: RXF 393 renal
U251 CNS = test system: U251 CNS
UACC-257 melanoma = test system: UACC-257 melanoma
MDA-MB-435 = test system: MDA-MB-435
OVCAR-4 ovarian = test system: OVCAR-4 ovarian
NCI-H226 lung = test system: NCI-H226 lung
MDA-MB-231 breast = test system: MDA-MB-231 breast
ACHN renal = test system: ACHN renal
T-47D breast = test system: T-47D breast
HS 578T breast = test system: HS 578T breast
NCI-H23 lung = test system: NCI-H23 lung
HT29 colon = test system: HT29 colon
CAKI-1 renal = test system: CAKI-1 renal
KM12 colon = test system: KM12 colon
K-562 leukemia = test system: K-562 leukemia
OVCAR-8 ovarian = test system: OVCAR-8 ovarian
UACC-62 melanoma = test system: UACC-62 melanoma
SW-620 colon = test system: SW-620 colon
DU-145 prostate = test system: DU-145 prostate
SNB-19 CNS = test system: SNB-19 CNS
NCI-H522 lung = test system: NCI-H522 lung
HCC-2998 colon = test system: HCC-2998 colon
HOP-92 NSCLC = test system: HOP-92 NSCLC

Measured: TGI

Cc1ccc2[nH]c(=O)c(-c3cnc(=O)[nH]n3)c(O)c2c1
> 100 µM: RPMI-8226 leukemia | NCI-H460 lung | CCRF-CEM leukemia | MALME-3M melanoma | MCF7 breast | MOLT-4 leukemia | NCI/ADR-RES ovarian | SK-MEL-5 melanoma | HL-60(TB) leukemia | BT-549 breast | HCT-116 colon | SF-539 CNS | OVCAR-5 ovarian | OVCAR-3 ovarian | SR leukemia | A498 renal | SK-MEL-2 melanoma | IGROV1 ovarian | HCT-15 colon | TK-10 renal | COLO 205 colon | 786-0 renal | PC-3 prostate | LOX IMVI melanoma | A549 NSCLC | EKVX NSCLC | SF-268 CNS | UO-31 renal | M14 melanoma | SK-OV-3 ovarian | SNB-75 CNS | SK-MEL-28 melanoma | MDA-N | SN12C renal | SF-295 CNS | HOP-62 NSCLC | RXF 393 renal | U251 CNS | UACC-257 melanoma | MDA-MB-435 | OVCAR-4 ovarian | NCI-H226 lung | MDA-MB-231 breast | ACHN renal | T-47D breast | HS 578T breast | NCI-H23 lung | HT29 colon | CAKI-1 renal | KM12 colon | K-562 leukemia | OVCAR-8 ovarian | UACC-62 melanoma | SW-620 colon | DU-145 prostate

CC1(C)CCOC(=O)C(Cl)CC1Cl (configuration not stated)
> 100 µM: NCI-H460 lung | CCRF-CEM leukemia | MALME-3M melanoma | MCF7 breast | MOLT-4 leukemia | NCI/ADR-RES ovarian | SK-MEL-5 melanoma | SNB-19 CNS | HCT-116 colon | SF-539 CNS | OVCAR-5 ovarian | OVCAR-3 ovarian | SR leukemia | A498 renal | NCI-H522 lung | SK-MEL-2 melanoma | IGROV1 ovarian | HCT-15 colon | TK-10 renal | COLO 205 colon | 786-0 renal | PC-3 prostate | LOX IMVI melanoma | A549 NSCLC | EKVX NSCLC | SF-268 CNS | M14 melanoma | SK-OV-3 ovarian | SK-MEL-28 melanoma | MDA-N | SN12C renal | SF-295 CNS | HOP-62 NSCLC | RXF 393 renal | U251 CNS | HCC-2998 colon | UACC-257 melanoma | MDA-MB-435 | OVCAR-4 ovarian | NCI-H226 lung | MDA-MB-231 breast | ACHN renal | T-47D breast | HS 578T breast | NCI-H23 lung | HT29 colon | CAKI-1 renal | KM12 colon | K-562 leukemia | OVCAR-8 ovarian | UACC-62 melanoma | SW-620 colon | DU-145 prostate

CN(C)c1ccc(/C=N/NC2=N/C(=C\c3ccco3)C(=O)N2)cc1
> 100 µM: RPMI-8226 leukemia | NCI-H460 lung | CCRF-CEM leukemia | MALME-3M melanoma | MOLT-4 leukemia | NCI/ADR-RES ovarian | SK-MEL-5 melanoma | HL-60(TB) leukemia | BT-549 breast | SNB-19 CNS | HCT-116 colon | SF-539 CNS | OVCAR-5 ovarian | OVCAR-3 ovarian | A498 renal | NCI-H522 lung | HOP-92 NSCLC | SK-MEL-2 melanoma | IGROV1 ovarian | HCT-15 colon | TK-10 renal | COLO 205 colon | 786-0 renal | PC-3 prostate | LOX IMVI melanoma | A549 NSCLC | EKVX NSCLC | SF-268 CNS | UO-31 renal | M14 melanoma | SK-OV-3 ovarian | SNB-75 CNS | SK-MEL-28 melanoma | MDA-N | SN12C renal | SF-295 CNS | HOP-62 NSCLC | RXF 393 renal | U251 CNS | UACC-257 melanoma | MDA-MB-435 | NCI-H226 lung | MDA-MB-231 breast | ACHN renal | T-47D breast | HS 578T breast | NCI-H23 lung | HT29 colon | CAKI-1 renal | KM12 colon | K-562 leukemia | OVCAR-8 ovarian | UACC-62 melanoma | SW-620 colon | DU-145 prostate

COc1nc2c(c(=O)n1C)N[C@@H]1[C@@H](O)[C@H](O)CO[C@@H]1N2
> 100 µM: RPMI-8226 leukemia | NCI-H460 lung | CCRF-CEM leukemia | MALME-3M melanoma | MCF7 breast | MOLT-4 leukemia | NCI/ADR-RES ovarian | SK-MEL-5 melanoma | HL-60(TB) leukemia | BT-549 breast | SNB-19 CNS | HCT-116 colon | SF-539 CNS | OVCAR-5 ovarian | OVCAR-3 ovarian | SR leukemia | A498 renal | NCI-H522 lung | SK-MEL-2 melanoma | IGROV1 ovarian | HCT-15 colon | TK-10 renal | COLO 205 colon | 786-0 renal | PC-3 prostate | LOX IMVI melanoma | A549 NSCLC | EKVX NSCLC | SF-268 CNS | UO-31 renal | M14 melanoma | SK-OV-3 ovarian | SNB-75 CNS | SK-MEL-28 melanoma | MDA-N | SN12C renal | SF-295 CNS | HOP-62 NSCLC | RXF 393 renal | U251 CNS | UACC-257 melanoma | MDA-MB-435 | OVCAR-4 ovarian | NCI-H226 lung | T-47D breast | HS 578T breast | HT29 colon | CAKI-1 renal | KM12 colon | K-562 leukemia | OVCAR-8 ovarian | UACC-62 melanoma | SW-620 colon | DU-145 prostate

— PubChem BioAssay (NCI)
